Results from patent US12453731B2, “Aniline-based WDR5 protein-protein interaction inhibitor, and preparation method and use thereof” (CHINA PHARMACEUTICAL UNIVERSITY, priority 2019, dated 2025).
Like-named read-outs stand apart in the source and are kept apart here.

What was measured:
[1] = tested on: MV4-11 human acute mononuclear leukemia cells; assay: anti-proliferative activity against leukemia cells MV4-11; type: cell-based; conditions: read-out: GI50 (MV-411)
Text: (§1) Some compounds of the present disclosure have also been tested for the antiproliferative activity against leukemia cells.

[2] = tested on: Molm-13 human acute myeloid leukemia cells; assay: anti-proliferative activity against leukemia cells Molm-13; type: cell-based
Text: as §1

[3] = tested on: methylation level of H3K4; assay: inhibition of the methylation level of H3K4 (methyltransferase activity); type: biochemical
MLL1-WDR5 PPI = MLL1-WDR5 PPI (Homo sapiens (Human), UniProt P61964); assay: fluorescent probe assay of MLL1-WDR5 protein-protein interaction inhibition; type: binding; conditions: fluorescent probe based on MLL1 peptide, incubation 0.5 hrs, read-out: MLL1-WDR5 PPI inhibiting activity IC50
Procedure: In the present disclosure, a fluorescent molecular probe was constructed based on a MLL1 peptide fragment binding to WDR5, for use as a method for study on an aniline compound interfering with WDR5 protein-protein interaction, to determine an inhibition rate of the aniline compound at various concentrations, and then compute the IC50 value. Specific experimental steps: 20 μL of WDR5 protein, 20 μL of a fluorescent probe, and 20 μL of a compound of different concentration gradients were added to a 384-well plate respectively. After incubation for 0.5 hrs, the fluorescence was read on a multifunctional microplate reader at an excitation wavelength of 485 nm and an emission wavelength of 535 nm, to compute the mP value. The inhibition rate was computed as per the formula below, and then the IC50 value was computed using GraphPad software.

[4] = Homo sapiens, MV4-11, MV4-11 cells
[5] = Homo sapiens, MOLM-13, Molm-13 cells

Compound	GI50 [1, 4]	GI50 [2, 5]	Whether the methylation level of H3K4 was inhibited [3]	IC50 (MLL1-WDR5 PPI)	GI50 ([2]; Molm-13 cells)	GI50 ([1]; MV4-11 cells)
Cc1c(-c2ccc(C(=O)N(C)C)cc2)ccc(N2CCN(C)CC2)c1Nc1ncnc(Cl)c1N [Example 65, 3″-((5-amino-6-chloropyrimidin-4-yl)amino)-N,N,2′-trimethyl-4″-(4-methylpiperazin-1-yl)-[1,1′-biphenyl]-4-carboxamide]				0.671 µM		
COC(=O)c1cn(-c2ccc(N3CCN(C)CC3)c(Nc3ncnc(Cl)c3N)c2)nn1 [Example 46, Methyl 1-(3-((5-amino-6-chloropyrimidin-4-yl)amino)-4-(4-methylpiperazin-1-yl)phenyl)-1H-1,2,3-triazole-4-carboxylate]	22.4 µM	11.7 µM	Yes	0.865 µM		
CN1CCN(c2ccc(-n3cc(C(=O)N(C)C)nn3)cc2Nc2ncnc(Cl)c2N)CC1 [Example 50, 1-(3-((5-amino-6-chloropyrimidin-4-yl)amino)-4-(4-methylpiperazin-1-yl)phenyl)-N,N-dimethyl-1H-1,2,3-triazole-4-carboxamide]	29.6 µM	35.5 µM	Yes			
CN1CCN(c2ccc(-n3cc(C(=O)N(C)C)nn3)cc2Nc2ncnc(Cl)c2N)CC1 [Example 51, 1-(3-((5-amino-6-chloropyrimidin-4-yl)amino)-4-(4-methylpiperazin-1-yl)phenyl)-N,N-dimethyl-1H-1,2,3-triazole-4-carboxamide]			Yes		39 µM	38 µM
CN1CCN(c2ccc(-c3ccncc3)cc2Nc2ncnc(Cl)c2N)CC1 [Example 45, 6-chloro-N^4-(2-(4-methylpiperazin-1-yl)-5-(pyridin-4-yl)phenyl)pyrimidine-4,5-diamine]	27.3 µM	23.2 µM		0.56 µM		
Cc1c(F)c(N)cc(C(=O)Nc2cc(-c3ccc(N)cc3)ccc2N2CCN(C)CC2)c1Cl [DDO-2084, reference compound]			Yes	338 µM		17.7 ± 2.3 µM
CN1CCN(c2ccc(-c3cncnc3)cc2Nc2ncnc(Cl)c2N)CC1 [Example 44, 6-chloro-N^4-(2-(4-methylpiperazin-1-yl)-5-(pyrimidine-5-yl)phenyl)pyrimidine-4,5-diamine]				5.71 µM		
CN1CCN(c2ccc([N+](=O)[O-])cc2Nc2ncnc(Cl)c2N)CC1 [Example 7, 6-chloro-N^4-(2-(4-methylpiperazin-1-yl)-5-nitrophenyl)pyrimidine-4,5-diamine]				2.66 µM		
CN(C)CCNC(=O)c1cn(-c2ccc(N3CCN(C)CC3)c(Nc3ncnc(Cl)c3N)c2)nn1 [Example 52, 1-(3-((5-amino-6-chloropyrimidin-4-yl)amino)-4-(4-methylpiperazin-1-yl)phenyl)-N-(2-(dimethylamino)ethyl)-1H-1,2,3-triazole-4-carboxamide]				1.56 µM		
CN1CCN(c2ccc(-c3ccc(NC(=O)c4ccccc4)cc3)cc2Nc2ncnc(Cl)c2N)CC1 [Example 37, N-(3″-((5-amino-6-chloropyrimidin-4-yl)amino)-4″-(4-methylpiperazin-1-yl)-[1,1′-biphenyl]-4-yl)benzenecarboxamide]			Yes	5.55 µM		
CN1CCN(c2ccc(-n3cc(C(=O)NCCCN4CCOCC4)nn3)cc2Nc2ncnc(Cl)c2N)CC1 [Example 48, 1-(3-((5-amino-6-chloropyrimidin-4-yl)amino)-4-(4-methylpiperazin-1-yl)phenyl)-N-(3-morpholinopropyl)-1H-1,2,3-triazole-4-carboxamide]				1.09 µM		
CN1CCN(c2ccc(-c3ccoc3)cc2Nc2ncnc(Cl)c2N)CC1 [Example 43, 6-chloro-N^4-(5-(furan-3-yl)-2-(4-methylpiperazin-1-yl)phenyl)pyrimidine-4,5-diamine]				11.4 µM		
CN1CCN(c2ccc([N+](=O)[O-])cc2Nc2cc(Cl)ncn2)CC1 [Example 2, 6-chloro-N-(2-(4-methylpiperazin-1-yl)-5-nitrophenyl)pyrimidine-4-amine]				10.3 µM		
CN1CCN(C(=O)c2cn(-c3ccc(N4CCN(C)CC4)c(Nc4ncnc(Cl)c4N)c3)nn2)CC1 [Example 49, (1-(3-((5-amino-6-chloropyrimidin-4-yl)amino)-4-(4-methylpiperazin-1-yl)phenyl)-1H-1,2,3-triazole-4-yl)(4-methylpiperazin-1-yl)methanone]				1.25 µM		
CN1CCN(c2ccc(-n3cc(C(=O)NCCN4CCCC4)nn3)cc2Nc2ncnc(Cl)c2N)CC1 [Example 53, 1-(3-((5-amino-6-chloropyrimidin-4-yl)amino)-4-(4-methylpiperazin-1-yl)phenyl)-N-(2-(pyrrolidin-1-yl)ethyl)-1H-1,2,3-triazole-4-carboxamide]				1.61 µM		
COc1ccc(-c2ccc(N3CCN(C)CC3)c(Nc3ncnc(Cl)c3N)c2)cc1 [Example 42, 6-chloro-N-(4′-methoxyl-4-(4-methylpiperazin-1-yl)-[1,1′-biphenyl]-3-yl)pyrimidine-4,5-diamine]				1.56 µM		

Now from value to compound, other results behind:

GI50 [1, 4]	GI50 [2, 5]	Whether the methylation level of H3K4 was inhibited [3]	IC50 (MLL1-WDR5 PPI)	GI50 ([2]; Molm-13 cells)	Compound	GI50 ([1]; MV4-11 cells)
24.9 µM	20.8 µM	Yes	0.165 µM		CN1CCN(c2ccc(-c3ccc(C(=O)NCCCN4CCOCC4)cc3)cc2Nc2ncnc(Cl)c2N)CC1 [Example 25, 3″-((5-amino-6-chloropyrimidin-4-yl)amino)-4″-(4-methylpiperazin-1-yl)-N-(3-morpholinopropyl)-[1,1′-biphenyl]-zole-4-carboxamide]	
10.5 µM	18.8 µM	Yes	0.46 µM		CC(C)NC(=O)c1ccc(-c2ccc(N3CCN(C)CC3)c(Nc3ncnc(Cl)c3N)c2)cc1 [Example 31, 3″-((5-amino-6-chloropyrimidin-4-yl)amino)-N-isopropyl-4″-(4-methylpiperazin-1-yl)-[1,1′-biphenyl]-4-carboxamide]	
17.5 µM	16.2 µM	Yes	0.24 µM		CN1CCN(c2ccc(-c3ccc(C(=O)N(C)C)cc3)c(F)c2Nc2ncnc(Cl)c2N)CC1 [Example 54, 3″-((5-amino-6-chloropyrimidin-4-yl)amino)-2′-fluoro-N,N-dimethyl-4″-(4-methylpiperazin-1-yl)-[1,1′-biphenyl]-4-carboxamide]	
20.4 µM	28.6 µM	Yes	0.033 µM		CN1CCN(c2ccc(-c3ccc(NC(=O)CN)cc3)c(F)c2Nc2ncnc(Cl)c2N)CC1 [Example 64, 2-amino-N-(3″-((5-amino-6-chloropyrimidin-4-yl)amino)-2′-fluoro-4″-(4-methylpiperazin-1-yl)-[1,1′biphenylyl]-4-yl)acetamide]	
27.7 µM	23.1 µM	Yes	0.074 µM		CN1CCN(c2cc(F)c(-c3ccc(C(=O)NCCN4CCOCC4)cc3)cc2Nc2ncnc(Cl)c2N)CC1 [Example 68]	
22.3 µM	17.6 µM	Yes	0.069 µM		CN1CCN(c2ccc(-c3ccc(C(=O)NCCCN4CCOCC4)cc3)c(F)c2Nc2ncnc(Cl)c2N)CC1 [Example 57]	
21.1 µM	20.5 µM	Yes	0.085 µM		CN1CCN(c2ccc(-c3ccc(NC(=O)CC4CCOCC4)cc3)c(F)c2Nc2ncnc(Cl)c2N)CC1 [Example 61]	
9.04 µM	8.43 µM	Yes	0.102 µM		CN1CCN(c2ccc(-c3ccc(C(=O)NCCN4CCOCC4)cc3)c(F)c2Nc2ncnc(Cl)c2N)CC1 [Example 56]	
16.7 µM	23.4 µM	Yes	0.186 µM		CN1CCN(c2ccc(-c3ccc(C(=O)N4CCOCC4)cc3)cc2Nc2ncnc(Cl)c2N)CC1 [Example 23, (3″-((5-amino-6-chloropyrimidin-4-yl)amino)-4-(4-methylpiperazin-1-yl)-[1,1′-biphenyl]-4-yl)(morpholino)methanone]	
		Yes	0.465 µM		Cc1cc(N2CCN(C)CC2)c(Nc2ncnc(Cl)c2N)cc1-c1ccc(C(=O)NCCCN2CCOCC2)cc1 [Example 74, 5″-((5-amino-6-chloropyrimidin-4-yl)amino)-2′-methyl-4″-(4-methylpiperazin-1-yl)-N-(3-morpholinopropyl)-[1,11,1′-terphenyl]-4-carboxamide]	
14.4 µM		Yes	0.04 µM		COC(=O)c1ccc(-c2cc(Nc3ncnc(Cl)c3N)c(N3CCN(C)CC3)cc2F)cc1 [Example 66, Methyl 5′-((5-amino-6-chloropyrimidin-4-yl)amino)-2′-fluoro-4′-(4-methylpiperazin-1-yl)-[1,1′-biphenyl]-4-carboxylate]	
		Yes	0.316 µM		COC(=O)c1ccc(-c2cc(Nc3ncnc(Cl)c3N)c(N3CCN(C)CC3)cc2C)cc1 [Example 73, Methyl 5′-((5-amino-6-chloropyrimidin-4-yl)amino)-2′-methyl-4′-(4-methylpiperazin-1-yl)-[1,1′-biphenyl]-4-carboxylate]	
